Reference: paper PMC6631349 (Xenobiotica; the fate of foreign compounds in biological …, 2014)
Where two headings read alike, the source gives them in different places.

Tests used:
[1] = biological target: T1, UGT1A8 (Homo sapiens, UniProt Q9HAW9); settings: for residual activity 1A8: recombinant human UGT, mean of triplicate
T1 sequence (Q9HAW9 26-530): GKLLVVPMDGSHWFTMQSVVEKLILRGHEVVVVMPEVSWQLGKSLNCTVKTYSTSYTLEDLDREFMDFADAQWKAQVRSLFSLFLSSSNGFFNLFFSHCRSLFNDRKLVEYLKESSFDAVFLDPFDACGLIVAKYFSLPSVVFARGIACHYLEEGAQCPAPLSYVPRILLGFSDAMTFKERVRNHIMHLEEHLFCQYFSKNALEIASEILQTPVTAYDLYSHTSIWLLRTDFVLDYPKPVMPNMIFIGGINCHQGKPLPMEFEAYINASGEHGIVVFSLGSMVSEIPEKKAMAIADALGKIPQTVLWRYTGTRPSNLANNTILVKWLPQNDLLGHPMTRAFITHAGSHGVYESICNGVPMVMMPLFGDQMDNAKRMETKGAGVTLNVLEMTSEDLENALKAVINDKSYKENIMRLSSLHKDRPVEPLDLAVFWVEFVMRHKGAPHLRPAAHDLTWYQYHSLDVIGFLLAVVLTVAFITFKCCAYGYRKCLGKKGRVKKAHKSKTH

[2] = biological target: T2, UGT1A9 (Homo sapiens, UniProt O60656); test: UGT1A9 supersomes-catalyzed 4-MU glucuronidation inhibition; settings: for residual activity 1A9: recombinant human UGT, mean of triplicate
T2 sequence (O60656 26-530): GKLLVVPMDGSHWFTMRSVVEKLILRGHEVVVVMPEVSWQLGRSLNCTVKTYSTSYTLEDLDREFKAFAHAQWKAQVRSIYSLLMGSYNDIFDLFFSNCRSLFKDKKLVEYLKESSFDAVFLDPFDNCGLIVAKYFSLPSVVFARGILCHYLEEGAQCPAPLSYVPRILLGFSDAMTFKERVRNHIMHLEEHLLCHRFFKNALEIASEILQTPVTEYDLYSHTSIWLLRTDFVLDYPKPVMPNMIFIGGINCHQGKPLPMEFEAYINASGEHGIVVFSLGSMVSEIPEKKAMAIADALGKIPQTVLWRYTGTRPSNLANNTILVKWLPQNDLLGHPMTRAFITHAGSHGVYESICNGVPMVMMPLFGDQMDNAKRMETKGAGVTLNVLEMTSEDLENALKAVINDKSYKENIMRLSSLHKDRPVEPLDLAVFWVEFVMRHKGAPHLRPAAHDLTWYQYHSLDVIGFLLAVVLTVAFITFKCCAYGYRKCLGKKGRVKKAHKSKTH

[3] = biological target: T3, UGT1A3 (Homo sapiens, UniProt P35503); test: UGT1A3 supersomes-catalyzed 4-MU glucuronidation inhibition; settings: recombinant human UGT, mean of triplicate
T3 sequence (P35503 29-534): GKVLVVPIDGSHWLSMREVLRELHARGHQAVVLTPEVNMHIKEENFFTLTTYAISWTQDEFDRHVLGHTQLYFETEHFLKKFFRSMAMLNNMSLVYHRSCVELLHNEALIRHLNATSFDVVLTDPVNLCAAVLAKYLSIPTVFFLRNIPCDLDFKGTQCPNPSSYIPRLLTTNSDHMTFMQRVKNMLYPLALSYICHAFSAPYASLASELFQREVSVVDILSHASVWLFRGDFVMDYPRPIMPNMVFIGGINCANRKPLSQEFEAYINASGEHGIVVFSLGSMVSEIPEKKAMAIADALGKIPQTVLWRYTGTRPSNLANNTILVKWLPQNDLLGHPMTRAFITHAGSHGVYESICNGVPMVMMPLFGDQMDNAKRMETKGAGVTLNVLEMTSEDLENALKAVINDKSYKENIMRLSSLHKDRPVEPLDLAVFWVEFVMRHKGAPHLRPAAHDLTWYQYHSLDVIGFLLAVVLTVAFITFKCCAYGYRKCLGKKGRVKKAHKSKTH

[4] = tested on: UGT isoforms; test: Initial screening towards all UGT isoforms; format: biochemical, human; settings: about 50 μM; isoforms not given

Row | SMILES | residual activity 1A8 ([1]; 50 μM PC components) | residual activity 1A9 ([2]; 50 μM PC components) | residual activity 1A3 ([3]; 50 μM PC components) | inhibition percentage of UGT1A9 activity ([2]; 50 μM) | residual activity 1A8 ([1]; 50 μM LPC components) | residual activity 1A9 ([2]; 50 μM LPC components) | residual activity 1A3 ([3]; 50 μM LPC components) | inhibition of activity of UGT isoforms [4] | inhibition kinetic type towards UGT1A8 ([1]; Dixon and Lineweaver-Burk plots, 4-MU glucuronidation)
1 | CCCCCCCCCCCCCCCCCCCC(=O)OC[C@H](COP(=O)([O-])OCC[N+](C)(C)C)OC(=O)CCCCCCCCCCCCCCCCCCC [PC 20:0, 20:0] | 94.9% | 65.6% | 90.8% |  |  |  |  |  | 
2 | CCCCCCCCCCCC(=O)OC[C@@H](O)COP(=O)([O-])OCC[N+](C)(C)C [LPC 12:0] |  |  |  |  | 89.2% | 89.2% | 74.8% |  | 
3 | CCCCCCC(=O)OC[C@H](COP(=O)([O-])OCC[N+](C)(C)C)OC(=O)CCCCCC [PC 7:0, 7:0] | 106.1% | 137.7% | 109.9% |  |  |  |  |  | 
4 | CCCCCCCCCCCCCCC(=O)OC[C@@H](O)COP(=O)([O-])OCC[N+](C)(C)C [LPC 15:0] |  |  |  |  | 1.6% | 82.8% | 52.8% | more than 90% | 
5 | CCCCCCCCCCCCCCCCC(=O)OC[C@H](COP(=O)([O-])OCC[N+](C)(C)C)OC(=O)CCCCCCCCCCCCCCCC [PC 17:0, 17:0] | 92.1% | 65.7% | 81.4% |  |  |  |  |  | 
6 | CCCCCCCCCCCCCCCCCC(=O)OC[C@H](COP(=O)([O-])OCC[N+](C)(C)C)OC(=O)CCCCCCCCCCCCCCCCC [PC 18:0, 18:0] | 84.1% | 67.7% | 83.7% |  |  |  |  |  | 
7 | CCCCCCCCCCCCC(=O)OC[C@@H](O)COP(=O)([O-])OCC[N+](C)(C)C [LPC 13:0] |  |  |  |  | 101.6% | 99.4% | 88.1% |  | 
8 | CCCCCCCCCC(=O)OC[C@H](COP(=O)([O-])OCC[N+](C)(C)C)OC(=O)CCCCCCCCC [PC 10:0, 10:0] | 59.3% | 158% | 107.4% |  |  |  |  |  | 
9 | CCCCCCCCCCCCCCCCC(=O)OC[C@@H](O)COP(=O)([O-])OCC[N+](C)(C)C [LPC 17:0] |  |  |  |  | 2.2% | 87.5% | 119.0% | more than 90% | 
10 | CCCCCCCC(=O)OC[C@H](COP(=O)([O-])OCC[N+](C)(C)C)OC(=O)CCCCCCC [PC 8:0, 8:0] | 78.3% | 180.5% | 119.1% |  |  |  |  |  | 
11 | CCCCCCCCCCC(=O)OC[C@@H](O)COP(=O)([O-])OCC[N+](C)(C)C [LPC 11:0] |  |  |  |  | 124.0% | 104.6% | 75.9% |  | 
12 | CCCCCCCCCCCCCC(=O)OC[C@@H](O)COP(=O)([O-])OCC[N+](C)(C)C [LPC 14:0] |  |  |  |  | 19.2% | 97.5% | 74.2% |  | 
13 | CCCCCCC(=O)OCC(O)COP(=O)([O-])OCC[N+](C)(C)C (centres unmarked) [LPC 7:0] |  |  |  |  | 101.1% | 92.9% | 80.4% |  | 
14 | CCCCCCCCCCCCCCCCCCCCCCC(=O)OC[C@H](COP(=O)([O-])OCC[N+](C)(C)C)OC(=O)CCCCCCCCCCCCCCCCCCCCCC [PC 23:0, 23:0] | 93.5% | 77.3% | 80.4% |  |  |  |  |  | 
15 | CCCCCCCCCCCCCCCCCCCCC(=O)OC[C@H](COP(=O)([O-])OCC[N+](C)(C)C)OC(=O)CCCCCCCCCCCCCCCCCCCC [PC 21:0, 21:0] | 36.9% | 38.1% | 88.2% |  |  |  |  |  | 
16 | CCCCCCCCC(=O)OC[C@@H](O)COP(=O)([O-])OCC[N+](C)(C)C [LPC 9:0] |  |  |  |  | 101.2% | 94.5% | 79.6% |  | 
17 | CCCCCCCCCCCCCCCCCC(=O)OC[C@@H](O)COP(=O)([O-])OCC[N+](C)(C)C [LPC 18:0] |  |  |  |  | 1.2% | 64.4% | 72.4% | more than 90% | competitive inhibition
18 | CC/C=C\C/C=C\C/C=C\C/C=C\C/C=C\C/C=C\CCC(=O)O[C@H](COC(=O)CCCCCCCCCCCCCCCCC)COP(=O)([O-])OCC[N+](C)(C)C [PC 18:0, 22:6, 1-stearoyl-2-docosahexaenoyl-sn-glycero-3-phosphocholine] | 116.1% | 94.4% | 90.0% |  |  |  |  |  | 
19 | CCCCCCCCCCCCCCCCCCCCCC(=O)OC[C@H](COP(=O)([O-])OCC[N+](C)(C)C)OC(=O)CCCCCCCCCCCCCCCCCCCCC [PC 22:0, 22:0] | 38.0% | 43.9% | 92.1% |  |  |  |  |  | 
20 | CCCCCC(=O)OC[C@H](COP(=O)([O-])OCC[N+](C)(C)C)OC(=O)CCCCC [PC 6:0, 6:0] | 116.2% | 96.1% | 105.1% |  |  |  |  |  | 
21 | CCCCCCCC(=O)OCC(O)COP(=O)([O-])OCC[N+](C)(C)C (centres unmarked) [LPC 8:0] |  |  |  |  | 102.7% | 99.6% | 80.3% |  | 
22 | CCCCCCCCCCCCCCCCCCC(=O)OC[C@H](COP(=O)([O-])OCC[N+](C)(C)C)OC(=O)CCCCCCCCCCCCCCCCCC [PC 19:0, 19:0] | 60.6% | 42.3% | 75.9% |  |  |  |  |  | 
23 | CCCCCC(=O)OC[C@@H](O)COP(=O)([O-])OCC[N+](C)(C)C [LPC 6:0] |  |  |  |  | 108.0% | 95.9% | 84.4% |  | 
24 | CCCCCCCCCC(=O)OC[C@@H](O)COP(=O)([O-])OCC[N+](C)(C)C [LPC 10:0] |  |  |  |  | 100.7% | 99.2% | 75.9% |  | 

Further lines, with some results ahead:

Row | residual activity 1A8 ([1]; 50 μM PC components) | residual activity 1A9 ([2]; 50 μM PC components) | residual activity 1A3 ([3]; 50 μM PC components) | inhibition percentage of UGT1A9 activity ([2]; 50 μM) | SMILES | residual activity 1A8 ([1]; 50 μM LPC components) | residual activity 1A9 ([2]; 50 μM LPC components) | residual activity 1A3 ([3]; 50 μM LPC components) | inhibition of activity of UGT isoforms [4] | inhibition kinetic type towards UGT1A8 ([1]; Dixon and Lineweaver-Burk plots, 4-MU glucuronidation)
25 | 105.9% | 64.7% | 103.4% |  | CCCCCCCCCCCCCCC(=O)OC[C@H](COP(=O)([O-])OCC[N+](C)(C)C)OC(=O)CCCCCCCCCCCCCC [PC 15:0, 15:0] |  |  |  |  | 
26 | 114.3% | 99.2% | 110.7% |  | CCCCCCCCCCCCC(=O)OC[C@H](COP(=O)([O-])OCC[N+](C)(C)C)OC(=O)CCCCCCCCCCCC [PC 13:0, 13:0] |  |  |  |  | 
27 | 114.1% | 84.1% | 93.0% |  | CCCCCCCCCCCC(=O)OC[C@H](COP(=O)([O-])OCC[N+](C)(C)C)OC(=O)CCCCCCCCCCC [PC 12:0, 12:0] |  |  |  |  | 
28 | 107.6% | 67.5% | 92.6% |  | CCCCCCCCCCCCCCCC(=O)OC[C@H](COP(=O)([O-])OCC[N+](C)(C)C)OC(=O)CCCCCCCCCCCCCCC [PC 16:0, 16:0] |  |  |  |  | 
29 | 116.8% | 97.8% | 110.7% |  | CCCCCCCCCCC(=O)OC[C@H](COP(=O)([O-])OCC[N+](C)(C)C)OC(=O)CCCCCCCCCC [PC 11:0, 11:0] |  |  |  |  | 
30 | 110.2% | 86.3% | 97.3% |  | CCCCCCCCCCCCCC(=O)OC[C@H](COP(=O)([O-])OCC[N+](C)(C)C)OC(=O)CCCCCCCCCCCCC [PC 14:0, 14:0] |  |  |  |  | 
31 | 33.2% | 10.7% | 117.7% | 89.3% | CCCCCCCCC(=O)OC[C@H](COP(=O)([O-])OCC[N+](C)(C)C)OC(=O)CCCCCCCC [PC 9:0, 9:0] |  |  |  |  | 
